The record followed here is patent publication US7879838B2, “Heteroaryl substituted pyrazinyl-piperazine-piperidines with CXCR3 antagonist activity” (Schering Corporation, priority 2005, dated 2011).

The test deals with T1, Human CXCR3 (N-delta 4) (Homo sapiens, UniProt P49682).
T1 construct: CD8 leader (N); Flag tag; expressed in transfected cells; membranes prepared
T1 sequence (P49682 5-368 limits assumed): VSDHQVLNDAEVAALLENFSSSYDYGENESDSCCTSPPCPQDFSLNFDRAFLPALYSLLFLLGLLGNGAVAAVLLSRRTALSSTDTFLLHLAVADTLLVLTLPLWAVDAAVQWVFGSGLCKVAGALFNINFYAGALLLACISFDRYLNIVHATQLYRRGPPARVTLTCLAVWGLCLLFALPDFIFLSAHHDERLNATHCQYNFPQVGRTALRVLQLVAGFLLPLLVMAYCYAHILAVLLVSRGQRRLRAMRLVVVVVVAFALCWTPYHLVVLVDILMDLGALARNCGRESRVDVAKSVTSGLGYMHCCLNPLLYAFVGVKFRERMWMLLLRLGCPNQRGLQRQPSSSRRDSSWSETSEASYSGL
Kind of test: Human CXCR3 (N-delta 4) scintillation proximity assay (SPA), [125I] IP-10 binding to Ba/F3-hCXCR3 membranes. An excerpt: The inventive compounds can readily be evaluated to determine activity at The CXCR3 receptors by known methods, such as, for example, Development of Human CXCR3 (N-delta 4) Binding Assay.
Cloning and Expression of Human CXCR3 (N-delta 4):
The DNA encoding human CXCR3 was cloned by PCR using human genomic DNA (Promega, Madison, Wis.) as a template. The PCR primers were designed based on the published sequence of human orphan receptor GPR9 (1) with incorporated restriction sites, a Kozak consensus sequence, CD8 leader and Flag tag. The PCR product was subcloned into the mammalian expression vector pME18Sneo, a derivative of the SR-alpha expression vector (designated as pME18Sneo-hCXCR3 (N-delta 4).
IL-3-dependent mouse pro-B cells Ba/F3 were transfected by electroporation in 0.4 ml Dulbecco's PBS containing 4×10^6 cells with 20 μg of pME18Sneo-hCXCR3 (N-delta 4) plasmid DNA. Cells were pulsed at 400 Volts, 100 OHMs, 960 μFd. The transfected cells were under selection with 1 mg/ml G418 (Life Technologies, Gaithersburg, Md.). G418-resistant Ba/F3 clones were screened for CXCR3 expression by specific binding of [^125I] IP-10 (NEN Life Science Products, Boston, Mass.).
Preparation of Ba/F3-hCXCR3 (N-delta 4) Membranes
Ba/F3 cells expressing human CXCR3 (N-delta 4) were pelleted and resuspended in the lysis buffer containing 10 mM HEPES, pH 7.5 and Complete® protease inhibitors (1 tablet per 100 ml) (Boehringer Mannheim, Indianapolis, Ind.) at a cell density of 20×10^6 cells per ml. After 5 minutes incubation on ice, cells were transferred to 4639 cell disruption bomb (Parr Instrument, Moline, Ill.) and applied with 1,500 psi of nitrogen for 30 minutes on ice. Large cellular debris was removed by centrifugation at 1,000×g. Cell membrane in the supernatant was sedimented at 100,000×g. The membrane was resuspended in the lysis buffer supplemented with 10% sucrose and stored at −80° C. Total protein concentration of the membrane was determined by BCA method from Pierce (Rockford, Ill.).
Human CXCR3 (N-delta 4) Scintillation Proximity Assay (SPA)
For each assay point, 2 μg of membrane was preincubated for 1 hr with 300 μg wheat germ agglutinin (WGA) coated SPA beads (Amersham, Arlington Heights, Ill.) in the binding buffer (50 mM HEPES, 1 mM CaCl2, 5 mM MgCl2, 125 mM NaCl, 0.002% NaN3, 1.0% BSA) at room temperature. The beads were spun down, washed once, resuspended in the binding buffer and transferred to a 96-well Isoplate (Wallac, Gaithersburg, Md.). 25 pM of [^125I] IP-10 with tested compounds in a series of titration were added to start the reaction. After 3 hr reaction at room temperature, the amount of [^125I] IP-10 bound to the SPA beads was determined with a Wallac 1450 Microbeta counter.
The Ki values for the various example compounds of the present invention are given in the afore-mentioned Table 1. From these values, it would be apparent to the skilled artisan that the compounds of the invention have excellent utility CXCR3 antagonists.
Background: In a scintillation proximity assay essentially only radioactivity close to the scintillant gives light.

[1] abbreviates: IC50 rating, 25 pM [125I] IP-10, membranes of Ba/F3 cells expressing human CXCR3 (N-delta 4).

As usually defined, the IC50 is the concentration that inhibits the measured activity by half. Lower therefore signals higher potency. For `CC[C@H]1CN(c2nc(N)c(C(=O)NC(=N)NC)nc2Cl)CCN1C1CCN(C(=O)c2ccc(Cl)nc2N)CC1` [Compound No. 1], the IC50 is, setting by setting: under setting [1], under 25 nM; (human CXCR3 (N-delta 4) SPA) 0.7 nM.

For `CCNC(=N)NC(=O)c1nc(Cl)c(N2CCN(C3CCN(C(=O)c4ccc(Cl)nc4N)CC3)[C@@H](CC)C2)nc1N` [Compound No. 5], the IC50 under setting [1] was under 25 nM.

Under setting [1], `CC[C@H]1CN(c2nc(N)c(C(=O)N[C@H]3CC[C@H]3O)nc2Cl)CCN1C1CCN(C(=O)c2ccc(Cl)nc2N)CC1` [Compound No. 15] registered an IC50 of under 25 nM.

Under setting [1], `CC[C@H]1CN(c2nc(N)c(C(=O)OC)nc2Cl)CCN1C1CCN(C(=O)c2ccc(Cl)nc2N)CC1` [Compound No. 58] came in with an IC50 of 25 to 100 nM.

Consider `CC[C@H]1CN(c2ncc(C(=O)NC3CC3)nc2C)CCN1C1CCN(C(=O)c2ccc(Cl)nc2N)CC1` [Compound No. 155], for which, under setting [1], the IC50 was under 25 nM.

Regarding `CCNC(=O)c1nc(C)c(N2CCN(C3CCN(C(=O)c4ccc(Cl)nc4N)CC3)[C@@H](CC)C2)nc1N` [Compound No. 156], under setting [1], the IC50 is under 25 nM.

With `CC[C@H]1CN(c2nc(N)c(C(=O)NC3CC3)nc2C)CCN1C1CCN(C(=O)c2ccc(Cl)nc2N)CC1` [Compound No. 157], under setting [1], the IC50 was under 25 nM.

For the compound `CC[C@H]1CN(c2nc(N)c(C(=O)NC[C@@H](C)O)nc2Cl)CCN1C1CCN(Cc2ccc(Cl)nc2N)CC1` [compound 2], the IC50 under setting [1] was under 25 nM.

With `CC[C@H]1CN(c2nc(N)c(C(=O)NC(=N)N)nc2Cl)CCN1C1CCN(C(=O)c2ccc(Cl)nc2N)CC1` [compound 3], the IC50 under setting [1] is under 25 nM.

Compound `CC[C@H]1CN(c2nc(N)c(C(=O)NC3CC3)nc2Cl)CCN1C1CCN(C(=O)c2ccc(Cl)nc2N)CC1` [compound 4] registered an IC50 under setting [1] of under 25 nM.

Compound `CC[C@H]1CN(c2nc(N)c(C(=O)NC3CC3)nc2Cl)CCN1C1CCN(C(=O)c2cc(F)c(Cl)nc2N)CC1` [compound 6] had an IC50 under setting [1] of under 25 nM.

For `CC[C@H]1CN(c2nc(N)c(C(=O)NCCO)nc2Cl)CCN1C1CCN(C(=O)c2ccc(Cl)nc2N)CC1` [compound 7], the IC50 under setting [1] was under 25 nM.

`CC[C@H]1CN(c2nc(N)c(C(=O)NC[C@@H](C)O)nc2Cl)CCN1C1CCN(C(=O)c2ccc(Cl)nc2N)CC1` [compound 8]: the IC50 under setting [1] was under 25 nM.

Under setting [1], `CC[C@H]1CN(c2nc(N)c(C(=O)N[C@@H]3CC[C@@H]3O)nc2Cl)CCN1C1CCN(C(=O)c2ccc(Cl)nc2N)CC1` [compound 9] displayed an IC50 of under 25 nM.

`CC[C@H]1CN(c2ncc(C(N)=O)nc2Cl)CCN1C1CCN(C(=O)c2ccc(Cl)nc2N)CC1` [compound 10] gave an IC50 under setting [1] of under 25 nM.

The compound `CC[C@H]1CN(c2ncc(C(=O)NC[C@@H](C)O)nc2Cl)CCN1C1CCN(C(=O)c2ccc(Cl)nc2N)CC1` [compound 11] displayed an IC50 under setting [1] of under 25 nM.

Take `CC[C@H]1CN(c2nc(N)c(C(=O)NCC(F)(F)F)nc2Cl)CCN1C1CCN(C(=O)c2ccc(Cl)nc2N)CC1` [compound 12]: under setting [1], the IC50 is under 25 nM.

With `CC[C@H]1CN(c2nc(N)c(C(=O)NC)nc2Cl)CCN1C1CCN(C(=O)c2cc(F)c(Cl)nc2N)CC1` [compound 13], the IC50 under setting [1] is under 25 nM.

As to `CC[C@H]1CN(c2nc(N)c(C(=O)NC(=N)NC(C)=O)nc2Cl)CCN1C1CCN(C(=O)c2ccc(Cl)nc2N)CC1` [compound 14], the IC50 under setting [1] is under 25 nM.

`CC[C@H]1CN(c2nc(N)c(C(=O)NC3CC3)nc2Cl)CCN1C1CCN(C(=O)c2cc(F)c(Cl)nc2Cl)CC1` [compound 16] registered an IC50 under setting [1] of under 25 nM.

Regarding `CC[C@H]1CN(c2nc(NCCOC)c(C(=O)NC3CC3)nc2Cl)CCN1C1CCN(C(=O)c2ccc(Cl)nc2N)CC1` [compound 17], under setting [1], the IC50 was under 25 nM.

Turning to `CC[C@H]1CN(c2nc(N)c(C(=O)N[C@@H]3CCC[C@H]3O)nc2Cl)CCN1C1CCN(C(=O)c2ccc(Cl)nc2N)CC1` [compound 18], under setting [1], the IC50 is under 25 nM.

Take `CC[C@H]1CN(c2nc(N)c(C(=O)NC3CC3)nc2Cl)CCN1C1CCN(C(=O)c2ccc(Cl)nc2Cl)CC1` [compound 19]: under setting [1], the IC50 was under 25 nM.

Under setting [1], `CC[C@H]1CN(c2nc(N)c(C(=O)NCCO)nc2Cl)CCN1C1CCN(Cc2ccc(Cl)nc2)CC1` [compound 20] came in with a concentration for half-maximal inhibition (IC50) of under 25 nM.
